This is an account of results in PubChem BioAssay AID248 (DTP/NCI, 2004).

Each structure is given as a SMILES string. Several values for one entry are separate records, joined by “and”; a condition that tells them apart may be missing. Equal entries are not always repeated. Inconclusive results and toxic doses are left out.

The test system of the assay is L1210 leukemia ip in BDF1 mice, survival T/C. The experiment in a line: NCI In Vivo Anticancer Drug Screen. Data for tumor model L1210 Leukemia (intraperitoneal) in B6D2F1 (BDF1) mice. The following applies: endpoint: mean survival time, higher = longer survival. Summed up:
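Survival endpoint. Drug-treated group vs vehicle group, expressed as T divided by C. Tumor passaged by transplantation.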

Where [1] appears, read: dose: 50.0 mg/kg/injection, schedule: Q01DX009 (ip), vehicle: saline.
Where [2] appears, read: dose: 100.0 mg/kg/injection, schedule: Q01DX009 (ip), vehicle: saline.
[3] abbreviates: dose: 400.0 mg/kg/injection, schedule: Q04DX002 (ip), vehicle: saline with Tween-80.
[4] abbreviates: dose: 100.0 mg/kg/injection, schedule: Q01DX009 (ip), vehicle: saline with Tween-80.
[5] abbreviates: dose: 200.0 mg/kg/injection, schedule: Q01DX009 (ip), vehicle: saline with Tween-80.
The mark [6] stands for this setting: dose: 400.0 mg/kg/injection, schedule: Q01DX009 (ip), vehicle: saline with Tween-80.
Where [7] appears, read: dose: 100.0 mg/kg/injection, schedule: Q04DX003 (ip), vehicle: saline.
Setting [8] is: dose: 200.0 mg/kg/injection, schedule: Q04DX003 (ip), vehicle: saline.
Where [9] appears, read: dose: 400.0 mg/kg/injection, schedule: Q04DX003 (ip), vehicle: saline.
The mark [10] stands for this setting: dose: 100.0 mg/kg/injection, schedule: Q01DX001 (ip), vehicle: saline.
Setting [11] is: dose: 200.0 mg/kg/injection, schedule: Q01DX001 (ip), vehicle: saline.
[12] abbreviates: dose: 400.0 mg/kg/injection, schedule: Q01DX001 (ip), vehicle: saline.
[13] abbreviates: dose: 50.0 mg/kg/injection, schedule: Q01DX001 (ip), vehicle: saline.
The mark [14] stands for this setting: dose: 100.0 mg/kg/injection, schedule: Q04DX003 (ip), vehicle: saline with Tween-80.
[15] abbreviates: dose: 400.0 mg/kg/injection, schedule: Q04DX003 (ip), vehicle: saline with Tween-80.
The mark [16] stands for this setting: dose: 100.0 mg/kg/injection, schedule: Q04DX003 (ip), vehicle: Klucel (hydroxypropylcellulose) (HPC).
Setting [17] is: dose: 200.0 mg/kg/injection, schedule: Q04DX003 (ip), vehicle: Klucel (hydroxypropylcellulose) (HPC).
Setting [18] is: dose: 200.0 mg/kg/injection, schedule: Q04DX003 (ip), vehicle: saline with Tween-80.

Consider `CC(C)/C=N/NC(N)=S`, for which the T/C by setting is: (dose: 3.13 mg/kg/injection, schedule: Q01DX001 (ip), vehicle: Klucel (hydroxypropylcellulose) (HPC)) 102 % of control; (dose: 6.25 mg/kg/injection, schedule: Q01DX001 (ip), vehicle: Klucel (hydroxypropylcellulose) (HPC)) 118 % of control; (dose: 12.5 mg/kg/injection, schedule: Q01DX001 (ip), vehicle: Klucel (hydroxypropylcellulose) (HPC)) 99 % of control and 102 % of control.
In the case of `C1CCC(C2CC2)CC1`, the T/C was 97 % of control under setting [1]; 94 % of control under setting [2]; 94 % of control (dose: 200.0 mg/kg/injection, schedule: Q01DX009 (ip), vehicle: saline).
With `O=[N+]([O-])c1ccc(Cc2ccccc2)cc1` (tested in a mixture with another compound), the T/C is 101 % of control (dose: 100.0 mg/kg/injection, schedule: Q04DX002 (ip), vehicle: saline with Tween-80); 101 % of control (dose: 200.0 mg/kg/injection, schedule: Q04DX002 (ip), vehicle: saline with Tween-80); 97 % of control under setting [3].
Regarding `Cn1nc(N)c2ncc(-c3ccc(Cl)cc3)nc21`, the T/C by setting is: under setting [4], 93 % of control; under setting [5], 96 % of control; under setting [6], 87 % of control.
For `COc1cc([N+](=O)[O-])c(C)c(Br)c1N`, the T/C runs as follows: (dose: 100.0 mg/kg/injection, schedule: Q01DX001 (ip), vehicle: carboxymethylcellulose (CMC)) 100 % of control; (dose: 200.0 mg/kg/injection, schedule: Q01DX001 (ip), vehicle: carboxymethylcellulose (CMC)) 100 % of control; (dose: 400.0 mg/kg/injection, schedule: Q01DX001 (ip), vehicle: carboxymethylcellulose (CMC)) 96 % of control.
As for `CCN(Cc1ccccc1)c1nnnn1-c1ccccc1`, the T/C reads like this: under setting [7], 96 % of control; under setting [8], 103 % of control; under setting [9], 98 % of control.
`Cc1cccc(N2CCC3(CC2)C(=O)NC(=S)NC3=O)c1`: the T/C is 104 % of control under setting [10], 94 % of control under setting [11] and 98 % of control under setting [12].
In the case of `COc1cccc(NC(=O)c2cccc([N+](=O)[O-])c2)c1`, the T/C by setting is: (dose: 100.0 mg/kg/injection, schedule: Q04DX002 (ip), vehicle: Klucel (hydroxypropylcellulose) (HPC)) 94 % of control; (dose: 200.0 mg/kg/injection, schedule: Q04DX002 (ip), vehicle: Klucel (hydroxypropylcellulose) (HPC)) 98 % of control; (dose: 400.0 mg/kg/injection, schedule: Q04DX002 (ip), vehicle: Klucel (hydroxypropylcellulose) (HPC)) 91 % of control.
As to `NNC(=O)c1cccnc1`, the T/C is, setting by setting: (dose: 12.5 mg/kg/injection, schedule: Q01DX009 (ip), vehicle: saline) 94 % of control; (dose: 25.0 mg/kg/injection, schedule: Q01DX001 (ip), vehicle: saline) 100 % of control; (dose: 25.0 mg/kg/injection, schedule: Q01DX009 (ip), vehicle: saline) 104 % of control; under setting [13], 105 % of control; under setting [1], 98 % of control; under setting [10], 102 % of control and 104 % of control. Moreover, under setting [2], the T/C is 105 % of control.
Take `O=C(Nc1ccc(NC(=O)Nc2ccc(C3=NCCN3)cc2)cc1)Nc1ccc(C2=NCCN2)cc1`: the T/C (dose: 110.0 mg/kg/injection, schedule: Q01DX Z (ip), vehicle: carboxymethylcellulose (CMC)) is 100 % of control and 115 % of control; the T/C (dose: 240.0 mg/kg/injection, schedule: Q01DX Z (oral), vehicle: carboxymethylcellulose (CMC)) is 98 % of control; the T/C (dose: 303.0 mg/kg/injection, schedule: Q01DX Z (ip), vehicle: carboxymethylcellulose (CMC)) was 160 % of control; the T/C (dose: 375.0 mg/kg/injection, schedule: Q01DX Z (ip), vehicle: carboxymethylcellulose (CMC)) is 98 % of control; the T/C (dose: 455.0 mg/kg/injection, schedule: Q01DX Z (ip), vehicle: carboxymethylcellulose (CMC)) was 93 % of control; the T/C (dose: 480.0 mg/kg/injection, schedule: Q01DX Z (oral), vehicle: carboxymethylcellulose (CMC)) is 104 % of control. Further, the T/C (dose: 960.0 mg/kg/injection, schedule: Q01DX Z (oral), vehicle: carboxymethylcellulose (CMC)) is 107 % of control.
`CCCCC(C)(C)COc1nc(OCC(C)(C)CCCC)nc(OCC(C)(C)CCCC)n1`: the T/C (dose: 25.6 mg/kg/injection, schedule: Q04DX002 (ip), vehicle: saline with Tween-80) was 97 % of control; the T/C (dose: 64.0 mg/kg/injection, schedule: Q04DX002 (ip), vehicle: saline with Tween-80) is 87 % of control; the T/C under setting [14] is 89 % of control; the T/C under setting [3] was 91 % of control; the T/C under setting [15] is 89 % of control.
For `O=C(O)C(CSC(c1ccccc1)c1ccccc1)N1C(=O)c2ccccc2C1=O` (stereo not given), the T/C is 102 % of control (dose: 75.0 mg/kg/injection, schedule: Q01DX009 (ip), vehicle: Klucel (hydroxypropylcellulose) (HPC)); 97 % of control (dose: 75.0 mg/kg/injection, schedule: Q04DX003 (ip), vehicle: Klucel (hydroxypropylcellulose) (HPC)); 98 % of control (dose: 150.0 mg/kg/injection, schedule: Q01DX009 (ip), vehicle: Klucel (hydroxypropylcellulose) (HPC)); 109 % of control (dose: 150.0 mg/kg/injection, schedule: Q04DX003 (ip), vehicle: Klucel (hydroxypropylcellulose) (HPC)); 104 % of control (dose: 300.0 mg/kg/injection, schedule: Q01DX009 (ip), vehicle: Klucel (hydroxypropylcellulose) (HPC)); 94 % of control (dose: 300.0 mg/kg/injection, schedule: Q04DX003 (ip), vehicle: Klucel (hydroxypropylcellulose) (HPC)).
Consider `CC(=O)Nc1c(Cl)c(Cl)c2[nH]c(=O)c3cc(Cl)ccc3c2c1Cl`, for which the T/C runs as follows: (dose: 75.0 mg/kg/injection, schedule: Q01DX001 (ip), vehicle: carboxymethylcellulose (CMC)) 87 % of control; (dose: 150.0 mg/kg/injection, schedule: Q01DX001 (ip), vehicle: carboxymethylcellulose (CMC)) 95 % of control; (dose: 300.0 mg/kg/injection, schedule: Q01DX001 (ip), vehicle: carboxymethylcellulose (CMC)) 88 % of control.
Regarding `O=C(Nc1ccccc1O)c1ccccc1`, the T/C by setting is: under setting [16], 109 % of control; under setting [17], 102 % of control; (dose: 400.0 mg/kg/injection, schedule: Q04DX003 (ip), vehicle: Klucel (hydroxypropylcellulose) (HPC)) 101 % of control.
For the molecule `N#CCCP(=O)(CCC#N)CCC#N`, the T/C reads like this: (dose: 50.0 mg/kg/injection, schedule: Q04DX003 (ip), vehicle: saline) 98 % of control; under setting [7], 98 % of control; under setting [8], 101 % of control; under setting [9], 101 % of control.
`C=CCC1C(=O)CC(C)(C)CC1=O`: the T/C runs as follows: under setting [14], 103 % of control; under setting [18], 103 % of control; under setting [15], 111 % of control.
For the molecule `CC(=O)c1ccc(C(=O)O)cc1`, the T/C runs as follows: (dose: 50.0 mg/kg/injection, schedule: Q01DX009 (ip), vehicle: saline with Tween-80) 87 % of control; under setting [4], 115 % of control; under setting [5], 94 % of control.
For the molecule `COc1ccc(C(C#N)N2CCOCC2)cc1` (stereo not given), the T/C (dose: 50.0 mg/kg/injection, schedule: Q01DX009 (ip), vehicle: Klucel (hydroxypropylcellulose) (HPC)) is 92 % of control; the T/C (dose: 100.0 mg/kg/injection, schedule: Q01DX009 (ip), vehicle: Klucel (hydroxypropylcellulose) (HPC)) was 93 % of control; the T/C under setting [16] is 96 % of control; the T/C (dose: 200.0 mg/kg/injection, schedule: Q01DX009 (ip), vehicle: Klucel (hydroxypropylcellulose) (HPC)) was 96 % of control; the T/C under setting [17] is 91 % of control.
Take `CSc1ccc(NS(=O)(=O)CCNC(=O)C(O)C(C)(C)CO)cc1` (stereo not given): the T/C reads like this: under setting [4], 100 % of control; under setting [14], 104 % of control; under setting [5], 103 % of control; under setting [18], 96 % of control; under setting [6], 92 % of control; under setting [15], 109 % of control.
In the case of `CN(C)c1ccc(/C=N\NC(=O)CCCC(=O)N/N=C/c2ccc(N(C)C)cc2Cl)c(Cl)c1`, the T/C is 98 % of control under setting [13], 98 % of control under setting [10], 102 % of control under setting [11] and 102 % of control under setting [12].
